In patent US9125930B2, “EGFR aptamer inhibitor for use in therapy and diagnosis” (CONSIGLIO NAZIONALE DELLE RICERCHE, priority 2010, dated 2015):
pKd: −log10 of the molar value.

How the values were obtained:
[1] = system: breast MCF7; test: Binding on MCF7 cells; design: species or system human; conditions: no or very low expression of EGFR; 100 nM
Protocol: (§1) Binding experiments were performed with 5′-[^32P]-labeled RNA. For labeling 2′-F-Py RNAs were 5′-end dephosphorylated using bacterial alcaline phosphatase (Invitrogen, Carlsbad, Calif.) before [^32P]-5′-end-labeled using T4 kinase (Invitrogen) and γ-[^32P]-ATP (6×10^3 Ci/mmol, GE Healthcare Bio-Sciences, Uppsala, Sweden) according to the supplier's instructions.
(§2) For binding experiments on cells, 3.5×10^4 cells were plated in 24-well plates in triplicate and were incubated with CL4 42-81 aptamer the scrambled sequence used as a negative control at 100 nM concentration in 200 μl of DMEM serum free for 20 min at RT in the presence of 100 μg/ml polyinosine as a nonspecific competitor (Sigma, St. Louis, Mo.). After five washings with 500 μl DMEM, bound sequences were recovered in 300 μl of SDS 1%, and the amount of radioactivity recovered was counted.

[2] = system: A549 cells; test: Apoptosis assay by PI staining and FACS; type: cell-based, human; design: dose or concentration left out as unconfirmed
Protocol: For apoptosis assay, DNA content analysis was performed by staining with propidium iodide (PI) and analyzing cells by flow cytometry (FACS).
[…] Cells were incubated with 2 μg/ml propidium iodide (PI, Sigma, St. Louis, Mo.) for 30 min at 4° C. and recovered. The relative proportion of cells with DNA content indicative of apoptosis (ipoploid) was determined by FACS.

[3] = system: glioma T98G; test: Binding on T98G cells; design: species or system human; conditions: high level of EGFR; 100 nM
Protocol: as §1, §2

[4] = system: NIH3T3 cells stably transfected with human EGFR (NIH/EGFR); test: Binding on NIH/EGFR cells; design: species or system mouse; conditions: [32P]-labeled aptamer at 100 nM; relative to scrambled aptamer
Protocol: Human NSCLC A549, epidermoid carcinoma A431, glioma U87MG and T98G, breast SKBr3, MCF7 and T47D and mouse fibroblast NIH3T3 (all from American Type Culture Collection, Manassas, Va.) cells were grown in Dulbecco's modified Eagle medium (DMEM) supplemented with 10% fetal bovine serum (FBS) and 2 mM L-glutamine (Invitrogen, Carlsbad, Calif.). NIH3T3 cells stably transfected with human EGFR (NIH/EGFR) were grown in DMEM with 10% FBS and 2 mM L-glutamine supplemented with 50 μg/ml Gentamycin.
as §1, §2

[5] = system: A549 cells; test: Binding of [32P]-labeled aptamer on A549 cells; design: species or system human
Protocol: as §1, §2

[6] = system: A549 tumors; test: Tumor growth in A549 mouse xenograft; type: in vivo; conditions: day 16, with respect to CL4 scrambled control, 200 pmols intratumoral three times a week
Protocol: The volume injections are small enough to preclude the compounds being forced inside the cells due to a nonspecific high-pressure injection. Tumors were measured every 3 days with calipers in three dimensions. The following formula was used to calculate tumor volume: VT=(W×L×H)×0.5236 (W, the shortest dimension; L, the longest dimension; H, the intermediate dimension). The growth curves are plotted as the means tumor volume±s.e.m. Statistical analysis of tumor size data was conducted using a one-way ANOVA. A P-value of 0.05 or less was considered to indicate a significant difference. […]
Athymic CD-1 nude mice (nu/nu) were housed in a highly controlled microbiological environment, thus to guarantee specific pathogen free conditions. Mice were injected subcutaneously with 3×10^6 (in 100 μl) in vitro propagated A549. Sixteen non-necrotic tumors of about 0.5 cm in diameter were randomly divided into two groups of eight mice as follows: group 1, CL4 scrambled-treated; group 2, CL4 42-81-treated. Aptamers (200 pmols/injection) were injected intra-tumorally in 100-1 μl volumes three times a week for 16 days. Tumors were measured every 2 days.

[7] = target: EGFR (Homo sapiens, UniProt P00533); test: Immunoblot of EGF-dependent EGFR phosphorylation in A549 cells; type: cell-based; design: endogenous in cells; host or cells: A549; conditions: 200 nM aptamer, following 5 min of EGFR stimulation
Protocol: […] The aptamers were subjected to a short denaturation-renaturation step (85° C. for 5 min, snap-cooled on ice for 2 min, and allowed to warm up to 37° C.) before each treatment. To prepare cell extracts, cells were washed twice in ice-cold PBS, and lysed in buffer A (50 mM Tris-HCl pH 8.0 buffer containing 150 mM NaCl, 1% Nonidet P-40, 2 mg/ml aprotinin, 1 mg/ml pepstatin, 2 mg/ml leupeptin, 1 mM Na3VO4). Protein concentration was determined by the Bradford assay using bovine serum albumin as the standard. The cell lysates were subjected to SDS-PAGE. Gels were electroblotted into polyvinylidene difluoride membranes (Millipore Co., Bedford, Mass.), and filters were probed with the indicated primary antibodies: anti-EGFR and anti-phospho-EGFR (Tyr1062), anti-phospho-44/42 MAP kinase (E10) (also indicated as p-Erk), anti-phospho-Akt, anti-Akt and anti-phospho-STAT3 (Tyr705), anti-ErbB2 (all from Cell Signaling, Beverly, Mass., United States); anti-Erk1, anti-EGFR, anti-ErbB3, anti-ErbB4 (C-16) (Santa Cruz Biotechnology, California, United States); anti-α-αtubulin (DM 1A) (Sigma, St. Louis, Mo.).
Proteins were visualized with peroxidase-conjugated secondary antibodies using the enhanced chemiluminescence system (GE Healthcare Bio-Sciences, Uppsala, Sweden). […]

For “CL4 42-81: 2′-fluoropyrimidine nuclease-resistant RNA aptamer of 39 nt: 5′ GCCUUAGUAACGUGCUUUGAUGUCGAUUCGACAGGAGGC 3′ (SEQ ID No. 1) (2'-fluoro at CU, RNA at AG, backbone not given here)”, the “binding on MCF7 cells” value [1] was “does not bind”, the “percentage of apoptotic cells (sub-G1 peak)” value ([2]; A549, 24 hs) was “about 30%” and the “percentage of apoptotic cells (sub-G1 peak)” value ([2]; A549, 48 hs) was 40%. The “binding on T98G cells” value [3] was “binds”, the “binding on NIH/EGFR cells” value [4] was “binds” and the “binding on A549 cells” value ([5]; EGFR-positive, 100 nM) was “binds”. For the same substance, the pKd ([5]; binding to A549 target cells) was 7.42, the “inhibition of tumor growth (tumor volume)” value [6] was 57% and the “inhibition of EGF-dependent phosphorylation of EGFR” value [7] was 60%.
